Laboratory results from patent US9145415B2, “Nitrogen-containing heterocyclic compound or salt thereof” (FUJIFILM Corporation, priority 2012, dated 2015).
pIC50: −log10 of the molar value. Read-outs that look alike come from different tables or passages of the source.

What was measured:
Molm-13 cells = test: Leukemia cell proliferation inhibition test (ATPlite), Molm-13; assay type: cell-based; conditions: Homo sapiens, read-out: MOLM13 cell proliferation inhibition effect
Method in brief: (§1)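 Molm-13 or MV4-11 cells at 10,000 cells/well in RPMI with 10% FBS and pen/strep were exposed to serially diluted compound for 72 h at 37 °C, 5% CO2. Total cellular ATP was read by luciferase luminescence. GI50 was taken relative to 0.1% DMSO control, from duplicates by sigmoid non-linear regression.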

[1] = target: T1, human FLT3 protein (FLT3 (WT)) (Homo sapiens, UniProt P36888); test: FLT3 inhibition test (FLT3 enzyme inhibition, time-resolved fluorescence of substrate peptide phosphorylation); assay type: biochemical; conditions: read-out: FLT3 (WT) enzyme inhibition activity
T1 construct: human FLT3 protein (intracellular region, 564 to 993 aa); GST; purchased Carna Biosciences; host or cells: baculovirus expression system
T1 sequence (P36888 564-993): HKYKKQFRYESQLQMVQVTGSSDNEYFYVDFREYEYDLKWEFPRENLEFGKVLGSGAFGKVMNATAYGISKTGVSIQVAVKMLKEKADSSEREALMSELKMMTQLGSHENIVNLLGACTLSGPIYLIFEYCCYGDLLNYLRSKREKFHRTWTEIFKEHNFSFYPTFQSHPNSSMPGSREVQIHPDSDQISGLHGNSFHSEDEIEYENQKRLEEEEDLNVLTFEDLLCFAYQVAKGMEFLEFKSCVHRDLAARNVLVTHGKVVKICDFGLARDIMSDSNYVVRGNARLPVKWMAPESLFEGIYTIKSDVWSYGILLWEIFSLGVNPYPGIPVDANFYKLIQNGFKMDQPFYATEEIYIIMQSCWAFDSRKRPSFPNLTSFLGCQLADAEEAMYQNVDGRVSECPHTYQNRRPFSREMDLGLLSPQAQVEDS
Method in brief: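 Substrate peptide phosphorylation detected by time-resolved fluorescence after a 30 min kinase reaction at 25° C with 50 μM ATP (final). Beforehand, compound and FLT3 (WT, 1.2 μg) stood 15 min at 25° C in HEPES buffer pH 7.5 containing MgCl2, NaCl, BSA and DTT.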

MV4-11 cells = test: Leukemia cell proliferation inhibition test (ATPlite), MV4-11; assay type: cell-based; conditions: Homo sapiens, read-out: MV4-11 cell proliferation inhibition effect
Method in brief: as §1

[2] = MOLM-13, 72 h, Molm-13, 72 hours culture, ATPlite, GI50 per method
[3] = GST-fused human FLT3 (564 to 993 aa), ATP 50 μM
[4] = MV4-11, 72 h, MV4-11, 72 hours culture, ATPlite, GI50 per method

| pIC50 (Molm-13 cells; [2]) | pIC50 [1, 3] | pIC50 (MV4-11 cells; [4]) | pIC50 (Molm-13 cells; MOLM-13, MOLM13 cell) | pIC50 ([1]; FLT3 (WT)) | pIC50 (MV4-11 cells; MV4-11, MV4-11 cell) | Structure (SMILES) |
| --- | --- | --- | --- | --- | --- | --- |
| > 8.00 | > 8.00 | > 8.00 | – | – | – | CCNc1nc(Nc2ccc3cn[nH]c3c2)ncc1C#CCCCNC(=O)[C@H](C)N(C)C(=O)/C=C/CN(C)C [Compound 10-64] |
| 7.00 to 8.00 | > 8.00 | 7.00 to 8.00 | – | – | – | CCCNc1nc(Nc2ccc(C(N)=O)cc2)ncc1C(=O)Nc1cccc(NC(=O)[C@H](C)NC(=O)/C=C/CN(C)C)c1 [Compound 3-12] |
| 7.00 to 8.00 | > 8.00 | 7.00 to 8.00 | – | – | – | CCCNc1nc(Nc2ccc(C#N)cc2)ncc1C#CCCC(=O)NCCN(C)C(=O)/C=C/CN(C)C [Compound 8-22] |
| 7.00 to 8.00 | 7.00 to 8.00 | 7.00 to 8.00 | – | – | – | C=CC(=O)NCC(=O)N(C)c1cccc(NC(=O)c2cnc(NCCc3ccncc3)nc2NCCC)c1 [Compound 1-5] |
| > 8.00 | > 8.00 | > 8.00 | – | – | – | COCCCNc1nc(Nc2ccnc(F)c2)ncc1C#CCCCNC(=O)[C@H](C)N(C)C(=O)/C=C/CN(C)C [Compound 9-16] |
| > 8.00 | > 8.00 | > 8.00 | – | – | – | C[C@@H](C(=O)NCCC(C)(C)C#Cc1cnc(Nc2ccc(C#N)cc2)nc1NC1CC1)N(C)C(=O)/C=C/CN(C)C [Compound 9-27] |
| > 8.00 | > 8.00 | > 8.00 | – | – | – | CCNc1nc(Nc2ccc3[nH]ncc3c2)ncc1C#CCCCNC(=O)[C@@H]1CCCN1C(=O)/C=C/CN(C)C [Compound 10-67, (S,E)-N-(5-(2-((1H-Indazol-5-yl)amino)-4-(ethylamino)pyrimidin-5-yl)-4-pentyn-1-yl)-1-(4-(dimethylamino)-2-butenoyl)pyrrolidine-2-carboxamide] |
| > 8.00 | > 8.00 | > 8.00 | – | – | – | CNc1nc(Nc2ccc(F)cc2)ncc1C#CCCCNC(=O)[C@@H]1C[C@@H](O)CN1C(=O)/C=C/CN(C)C [Compound 7-85] |
| 7.00 to 8.00 | > 8.00 | 7.00 to 8.00 | – | – | – | C=CC(=O)NC(C)(C)C(=O)NCCCNC(=O)c1cnc(Nc2ccc3cnccc3c2)nc1NCCC [Compound 6-7] |
| – | – | – | > 8.00 | > 8.00 | > 8.00 | CCCNc1nc(Nc2ccc3c(OC)n[nH]c3c2)ncc1C#CCCCNC(=O)[C@@H]1CCCN1C(=O)/C=C/CN(C)C [Compound 22-68] |
| > 8.00 | > 8.00 | > 8.00 | – | – | – | CCCNc1nc(Nc2ccc3cnn(C)c3c2)ncc1C#CCCCNC(=O)[C@H](C)N(C)C(=O)/C=C/CN(C)C [Compound 21-9] |
| > 8.00 | > 8.00 | > 8.00 | – | – | – | CCCNc1nc(Nc2ccc(C#N)cc2)ncc1C#C[C@@H]1CCC[C@H](NC(=O)[C@H](C)N(C)C(=O)/C=C/CN(C)C)C1 [Compound 13-4] |
| – | – | – | > 8.00 | > 8.00 | > 8.00 | CCCNc1nc(Nc2ccc3[nH]nc(OC)c3c2)ncc1C#CCCCNC(=O)[C@H](C)N(C)C(=O)/C=C/CN(C)C [Compound 22-64] |
| > 8.00 | > 8.00 | > 8.00 | – | – | – | CCCNc1nc(Nc2ccc(C#N)cc2)ncc1C#CCCCNC(=O)[C@@H]1C[C@@H](O)CN1C(=O)/C=C/CN(C)C [Compound 7-68] |
| 7.00 to 8.00 | > 8.00 | 7.00 to 8.00 | – | – | – | C[C@@H](C(=O)NCCCC#Cc1cnc(Nc2cccc(F)c2)nc1NCCc1cccs1)N(C)C(=O)/C=C/CN(C)C [Compound 10-9] |
| 7.00 to 8.00 | > 8.00 | > 8.00 | – | – | – | CCCNc1nc(NC(=O)Nc2ccncc2)ncc1C(=O)Nc1cccc(NC(=O)[C@H](C)N(C)C(=O)/C=C/CN(C)C)c1 [Compound 6-14] |
| > 8.00 | > 8.00 | > 8.00 | – | – | – | C[C@@H](C(=O)NCCCC#Cc1cnc(Nc2ccnc(F)c2)nc1N1CCOCC1)N(C)C(=O)/C=C/CN(C)C [Compound 9-11] |
| > 8.00 | > 8.00 | > 8.00 | – | – | – | CNc1nc(Nc2ccc(F)cc2)ncc1C#CCCCNC(=O)CN(C)C(=O)/C=C/CN(C)C [Compound 7-89] |
| – | – | – | > 8.00 | > 8.00 | > 8.00 | CCCNc1nc(Nc2cnc3c(cnn3C)c2)ncc1C#CCCCNC(=O)[C@H](C)N(C)C(=O)/C=C/CN(C)C [Compound 22-27] |
| > 8.00 | > 8.00 | > 8.00 | – | – | – | CCCNc1nc(Nc2cccc(C#N)c2)ncc1C#C[C@@H]1CCC[C@H](NC(=O)[C@H](C)N(C)C(=O)/C=C/CN(C)C)C1 [Compound 13-7] |

| pIC50 (Molm-13 cells; [2]) | pIC50 [1, 3] | pIC50 (MV4-11 cells; [4]) | pIC50 (Molm-13 cells; MOLM-13, MOLM13 cell) | pIC50 ([1]; FLT3 (WT)) | pIC50 (MV4-11 cells; MV4-11, MV4-11 cell) | Structure (SMILES) |
| --- | --- | --- | --- | --- | --- | --- |
| 6.00 to 7.00 | 7.00 to 8.00 | 6.00 to 7.00 | – | – | – | CCCNc1nc(Nc2cccc(F)c2)ncc1C#CCCC(=O)NCCN(C)C(=O)/C=C/CN(C)C [Compound 8-21] |
| > 8.00 | > 8.00 | > 8.00 | – | – | – | CCCNc1nc(Nc2ccc(C#N)c(F)c2)ncc1C#CCCCNC(=O)[C@H](C)N(C)C(=O)/C=C/CN(C)C [Compound 9-25] |
| – | – | – | > 8.00 | > 8.00 | 7.00 to 8.00 | CNc1ncc(C#CCCCNC(=O)[C@H](C)N(C)C(=O)/C=C/CN(C)C)c(Nc2ccc(OC)cc2)n1 [Compound 21-48] |
| 7.00 to 8.00 | > 8.00 | 7.00 to 8.00 | – | – | – | C=CC(=O)N1CCC(NC(=O)c2cnc(NCCc3ccncc3)nc2NCCC)CC1 [Compound 6-18] |
| > 8.00 | > 8.00 | > 8.00 | – | – | – | CCNc1nc(Nc2ccc3c(cnn3C)c2)ncc1C#CCCCNC(=O)[C@H](C)N(C)C(=O)/C=C/CN(C)C [Compound 10-53] |
| 7.00 to 8.00 | > 8.00 | 7.00 to 8.00 | – | – | – | C=CC(=O)NCC(=O)Nc1cc(Cl)cc(NC(=O)c2cnc(NCCc3ccncc3)nc2NCCC)c1 [Compound 2-5] |
| < 6.00 | 7.00 to 8.00 | < 6.00 | – | – | – | C=CC(=O)NCCC(=O)NCCNC(=O)c1cnc(NCCc2ccncc2)nc1NCCC [Compound 2-19] |
| > 8.00 | > 8.00 | > 8.00 | – | – | – | CCCNc1nc(Nc2cccc(F)c2)ncc1C#CCCCNC(=O)[C@@H]1C[C@@H](F)CN1C(=O)/C=C/CN(C)C [Compound 7-47] |
| 7.00 to 8.00 | > 8.00 | 7.00 to 8.00 | – | – | – | CCCNc1nc(NCCc2ccncc2)ncc1C(=O)Nc1cccc(NC(=O)CNC(=O)/C=C/CN2CCN(C)CC2)c1 [Compound 2-14] |
| – | – | – | > 8.00 | > 8.00 | > 8.00 | CCCNc1nc(Nc2cnc3c(c2)c(OC)nn3C)ncc1C#CCCCNC(=O)[C@@H]1CCCN1C(=O)/C=C/CN(C)C [Compound 22-47] |
| 6.00 to 7.00 | 7.00 to 8.00 | 6.00 to 7.00 | – | – | – | C=CC(=O)Nc1cccc(NC(=O)c2cnc(NCCc3ccncc3)nc2NCCC)c1 [Compound 2-25] |
| – | – | – | > 8.00 | > 8.00 | > 8.00 | CCCNc1nc(Nc2ccc(-n3ccnn3)cc2)ncc1C#CCCCNC(=O)[C@H](C)N(C)C(=O)/C=C/CN(C)C [Compound 22-17] |
| – | – | – | > 8.00 | > 8.00 | > 8.00 | CCCNc1nc(Nc2ccc3[nH]ncc3c2)ncc1C#CCCCNC(=O)[C@H](C)N(C)C(=O)/C=C/CN(C)C [Compound 21-55] |
| > 8.00 | > 8.00 | > 8.00 | – | – | – | C[C@@H](C(=O)N[C@H]1C[C@@H](C#Cc2cnc(Nc3ccc(C#N)cc3)nc2NCCCF)C1)N(C)C(=O)/C=C/CN(C)C [Compound 15-14, (E)-N—((S)-1-(((1S,3R)-3-((2-((4-Cyanophenyl)amino)-4-((3-fluoropropyl)amino)pyrimidin-5-yl)ethynyl)cyclobutyl)amino)-1-oxopropan-2-yl)-4-(dimethylamino)-N-methyl-2-butenamide] |
| > 8.00 | > 8.00 | > 8.00 | – | – | – | COc1ccc(Nc2nc(Nc3ccc(F)nc3)ncc2C#CCCCNC(=O)[C@H](C)N(C)C(=O)/C=C/CN(C)C)cc1 [Compound 7-22] |
| > 8.00 | > 8.00 | > 8.00 | – | – | – | C[C@@H](C(=O)N[C@H]1CCC[C@@H](C#Cc2cnc(Nc3ccnc(F)c3)nc2NC2CC2)C1)N(C)C(=O)/C=C/CN(C)C [Compound 14-2] |
| 7.00 to 8.00 | > 8.00 | 7.00 to 8.00 | – | – | – | CCCNc1nc(NCCc2ccncc2)ncc1C(=O)NCCC(CC)NC(=O)CNC(=O)/C=C/CN(C)C (stereo not drawn) [Compound 1-11] |
| – | – | – | > 8.00 | > 8.00 | > 8.00 | CCCNc1nc(Nc2cnc3c(c2)c(C)nn3C)ncc1C#CCCCNC(=O)[C@H](C)N(C)C(=O)/C=C/CN(C)C [Compound 22-28] |
| > 8.00 | > 8.00 | > 8.00 | – | – | – | CNc1ncc(C#C[C@H]2C[C@@H](NC(=O)[C@H](C)N(C)C(=O)/C=C/CN(C)C)C2)c(Nc2ccc(OC)cc2)n1 [Compound 13-21] |
